The NIST ThermoML archive (doi:10.1021/je900691n)

Assay: xn = mol fraction of the nth substance listed
Settings: Liquid, Pycnometric method

COC(=O)OC [dimethyl carbonate] + O=C=O
mass density [kg/m3]
Settings	332.85 K	337.45 K
8220 kPa, x1 = 0.0242	–	212
8340 kPa, x1 = 0.0242	–	217
8440 kPa, x1 = 0.0242	–	222
8530 kPa, x1 = 0.0242	–	226
8640 kPa, x1 = 0.0242	–	231
8730 kPa, x1 = 0.0242	–	236
8820 kPa, x1 = 0.0242	–	242
8920 kPa, x1 = 0.0242	–	247
9030 kPa, x1 = 0.0242	–	253
9130 kPa, x1 = 0.0242	–	259
9240 kPa, x1 = 0.0242	–	266
9350 kPa, x1 = 0.0242	–	272
9460 kPa, x1 = 0.0242	–	279
9570 kPa, x1 = 0.0242	–	287
9690 kPa, x1 = 0.0242	–	295
9760 kPa, x1 = 0.1484	–	790
9810 kPa, x1 = 0.0242	–	304
9820 kPa, x1 = 0.118	773	–
9910 kPa, x1 = 0.0242	353	–
9920 kPa, x1 = 0.1484	826	–
9930 kPa, x1 = 0.0242	–	311
9960 kPa, x1 = 0.086	682	–
10010 kPa, x1 = 0.0242	362	–
10030 kPa, x1 = 0.086	686	–
10040 kPa, x1 = 0.118	780	–
10060 kPa, x1 = 0.1484	–	795
10090 kPa, x1 = 0.0481	484	–
10110 kPa, x1 = 0.0242	371	–
10180 kPa, x1 = 0.118	–	737
10200 kPa, x1 = 0.0242	381	–
10200 kPa, x1 = 0.086	695	–
10250 kPa, x1 = 0.0481	506	–
10290 kPa, x1 = 0.1484	832	–
10300 kPa, x1 = 0.0242	391	–
10350 kPa, x1 = 0.0481	517	–
10350 kPa, x1 = 0.118	788	743
10380 kPa, x1 = 0.0242	399	–
10380 kPa, x1 = 0.086	704	–
10420 kPa, x1 = 0.0481	525	–
10450 kPa, x1 = 0.0481	–	450
10450 kPa, x1 = 0.086	–	631
10480 kPa, x1 = 0.086	–	634
10490 kPa, x1 = 0.0242	410	–
10520 kPa, x1 = 0.0481	538	–
10530 kPa, x1 = 0.086	711	–
10530 kPa, x1 = 0.1484	–	804
10550 kPa, x1 = 0.086	–	640
10580 kPa, x1 = 0.0242	417	–
10620 kPa, x1 = 0.118	–	751
10630 kPa, x1 = 0.086	–	644
10640 kPa, x1 = 0.0481	550	–
10670 kPa, x1 = 0.0481	–	470
10720 kPa, x1 = 0.1484	839	–
10740 kPa, x1 = 0.0481	560	–
10740 kPa, x1 = 0.118	796	–
10780 kPa, x1 = 0.0481	–	481
10800 kPa, x1 = 0.086	–	654
10820 kPa, x1 = 0.1484	–	809
10860 kPa, x1 = 0.086	724	–
10890 kPa, x1 = 0.0481	574	492
10940 kPa, x1 = 0.118	–	760
11010 kPa, x1 = 0.0481	–	504
11060 kPa, x1 = 0.0481	588	–
11080 kPa, x1 = 0.086	–	669
11160 kPa, x1 = 0.0481	–	517
11200 kPa, x1 = 0.118	805	–
11230 kPa, x1 = 0.1484	–	816
11250 kPa, x1 = 0.1484	846	–
11260 kPa, x1 = 0.0481	603	–
11270 kPa, x1 = 0.086	738	–
11290 kPa, x1 = 0.118	–	769
11310 kPa, x1 = 0.0481	–	530
11380 kPa, x1 = 0.086	–	684
11480 kPa, x1 = 0.0481	–	543
11500 kPa, x1 = 0.0481	619	–
11650 kPa, x1 = 0.0481	–	558
11700 kPa, x1 = 0.118	–	779
11720 kPa, x1 = 0.1484	–	823
11730 kPa, x1 = 0.1484	851	–
11740 kPa, x1 = 0.118	815	–
11750 kPa, x1 = 0.086	751	–
11760 kPa, x1 = 0.0481	636	–
11780 kPa, x1 = 0.086	–	700
11850 kPa, x1 = 0.0481	–	573
11990 kPa, x1 = 0.0481	650	–
12100 kPa, x1 = 0.0481	–	589
12160 kPa, x1 = 0.118	822	–
12190 kPa, x1 = 0.118	–	789
12240 kPa, x1 = 0.1484	–	830
12260 kPa, x1 = 0.1484	858	–
12270 kPa, x1 = 0.086	765	716
12280 kPa, x1 = 0.0481	663	–
12360 kPa, x1 = 0.0481	–	607
12630 kPa, x1 = 0.0481	678	–
12660 kPa, x1 = 0.118	–	798
12700 kPa, x1 = 0.118	830	–
12740 kPa, x1 = 0.1484	–	838
12750 kPa, x1 = 0.086	775	–
12750 kPa, x1 = 0.1484	863	–
12800 kPa, x1 = 0.086	–	732
13170 kPa, x1 = 0.086	–	742
13190 kPa, x1 = 0.118	837	–
13220 kPa, x1 = 0.118	–	807
13230 kPa, x1 = 0.086	784	–
13240 kPa, x1 = 0.1484	–	843
13270 kPa, x1 = 0.1484	869	–
13640 kPa, x1 = 0.118	–	814
13700 kPa, x1 = 0.118	843	–
13730 kPa, x1 = 0.086	–	755
13730 kPa, x1 = 0.1484	–	849
13760 kPa, x1 = 0.086	794	–
13800 kPa, x1 = 0.1484	874	–
14170 kPa, x1 = 0.118	–	821
14220 kPa, x1 = 0.086	–	766
14230 kPa, x1 = 0.118	850	–
14270 kPa, x1 = 0.1484	–	855
14290 kPa, x1 = 0.086	803	–
14520 kPa, x1 = 0.1484	881	–
14710 kPa, x1 = 0.086	–	775
14720 kPa, x1 = 0.086	810	–
14730 kPa, x1 = 0.118	–	829
14760 kPa, x1 = 0.118	856	–
14780 kPa, x1 = 0.1484	–	861
15020 kPa, x1 = 0.1484	885	–
15150 kPa, x1 = 0.086	–	783
15280 kPa, x1 = 0.118	–	836
15290 kPa, x1 = 0.118	861	–
15330 kPa, x1 = 0.086	819	–
15350 kPa, x1 = 0.1484	–	866
15460 kPa, x1 = 0.1484	889	–
15740 kPa, x1 = 0.086	–	792
15740 kPa, x1 = 0.118	866	–
15760 kPa, x1 = 0.086	825	–
15770 kPa, x1 = 0.118	–	842
15800 kPa, x1 = 0.1484	–	870
15940 kPa, x1 = 0.1484	893	–
16200 kPa, x1 = 0.086	831	–
16250 kPa, x1 = 0.086	–	801
16370 kPa, x1 = 0.118	872	–
16400 kPa, x1 = 0.118	–	849
16600 kPa, x1 = 0.1484	–	881
16670 kPa, x1 = 0.1484	899	–
